From patent US8227450B2, “Lysine-based prodrugs of aspartyl protease inhibitors and processes for their preparation” (priority 2005, dated 2012) come the findings set out here.

Structures are written as SMILES.

The data set in a line: Bioavailability: plasma concentration after oral administration to rats. The following applies: for AUC: rat plasma, 3 rats; for Presence of the unchanged prodrug in the blood samples: 50 mg/kg po as aqueous solution (PBS), HPLC-MS; for Presence of the unchanged prodrug in the blood samples / Delivery of parent drug (PL-100 / PL-337) compared to non-aqueous formulations of the parent drug: rat; for Delivery of parent drug (PL-100 / PL-337) compared to non-aqueous formulations of the parent drug: aqueous dosing, 50 mg/kg po. It is filed as in vivo, male Sprague-Dawley rats. As for the experimental part: To assess the extent of in vivo cleavage of the phosphate group from the putative compounds, PL-100, PL-462 (based on PL-100), PL-337 and PL-515 (based on PL-337) compounds were administered per os (po) (50 mg/kg) to male Sprague-Dawley rats and their plasma concentration measured at different time intervals post-administration. All test articles (PL-100, PL-462, PL-337 and PL-515) were prepared in different vehicle at the final concentration of 25 mg/mL. The vehicle composition is as follows: (1) 20% ethanol; 50% propylene glycol; 0.05% w/v Tween 20 and water (Mix); (2) PBS buffer (PBS). Test articles were administered to male Sprague-Dawley rats at a single oral dose of 50 mg/kg. Each article was tested in three rats. Blood samples (0.2-0.3 mL) were collected at the post-dose time of 10, 20, 40, 60, 120, 180 and 360 minutes. The harvested blood was centrifuged to isolate plasma. The resulting plasma was separated and stored at −70° C. Plasma samples together with standards and quality control samples were treated to precipitate proteins, then analyzed by HPLC-MS, for the presence of PL-462, PL-100, PL-515 and PL-337.

The mark [1] stands for this setting: parent drug dosed 50 mg/Kg po in Mix vehicle (20% ethanol; 50% propylene glycol; 0.05% w/v Tween 20 and water).
[2] abbreviates: prodrug dosed 50 mg/Kg po in PBS vehicle, parent drug detected (PL-100 or PL-337).

For `COC(=O)N[C@H](C(=O)NCCCC[C@@H](CO)N(CC(C)C)S(=O)(=O)c1ccc(N)cc1)C(c1ccccc1)c1ccccc1` [PL-100, (1S,5S)-(1-{5-[(4-amino-benzenesulfonyl)-isobutyl-amino]-6-hydroxy-hexylcarbamoyl}-2,2-diphenyl-ethyl)-carbamic acid methyl ester], the AUC under setting [1] was 0.675 ± 0.171 μg/hr * ml.
Still for that read-out and setting: to `COC(=O)N[C@H](C(=O)NCCCC[C@@H](CO)N(CC(C)C)S(=O)(=O)c1ccc(N)c(F)c1)C(c1ccccc1)c1ccccc1` [PL-337, (1-{5-[(4-amino-3-fluoro-benzenesulfonyl)-isobutyl-amino]-6-hydroxy-hexylcarbamoyl}-2,2-diphenyl-ethyl)-carbamic acid methyl ester] belongs 1.180 ± 0.196 μg/hr * ml.
Consider `COC(=O)N[C@H](C(=O)NCCCC[C@@H](COP(=O)([O-])[O-])N(CC(C)C)S(=O)(=O)c1ccc(N)cc1)C(c1ccccc1)c1ccccc1.[Na+].[Na+]` [PL-462, (1S,5S)-(1-{5-[(4-amino-benzenesulfonyl)-isobutyl-amino]-6-phosphonooxy-hexylcarbamoyl}-2,2-diphenyl-ethyl)-carbamic acid methyl ester sodium salt], for which the “Presence of the unchanged prodrug in the blood samples” value is “None of the PL-462 and PL-515 compounds, delivered as aqueous solutions, are detected”; the “Delivery of parent drug (PL-100 / PL-337) compared to non-aqueous formulations of the parent drug” value is recorded as “equivalent to slightly superior”. Also, the AUC under setting [2] amounted to 0.816 ± 0.295 μg/hr * ml.
In the case of `COC(=O)N[C@H](C(=O)NCCCC[C@@H](COP(=O)(O)O)N(CC(C)C)S(=O)(=O)c1ccc(N)c(F)c1)C(c1ccccc1)c1ccccc1` [PL-515, (1S,5S)-(1-{5-[(4-amino-3-fluoro-benzenesulfonyl)-isobutyl-amino]-6-phosphonooxy-hexylcarbamoyl}-2,2-diphenyl-ethyl)-carbamic acid methyl ester], the “Presence of the unchanged prodrug in the blood samples” value is “None of the PL-462 and PL-515 compounds, delivered as aqueous solutions, are detected”; the “Delivery of parent drug (PL-100 / PL-337) compared to non-aqueous formulations of the parent drug” value is listed as “equivalent to slightly superior”. Under setting [2], the AUC stood at 1.075 ± 0.625 μg/hr * ml.
